Source: US9163256B2, “Mutant receptors and their use in a nuclear receptor-based inducible gene expression system” (priority 2004, dated 2015)
Several values for one entry are separate records, joined by “and”; a condition that tells them apart may be missing. Equal values may be shown once.

What was measured:
Test in all cases: cell-based
[1] = target: CfEcR-DEF mutant R95M (Choristoneura fumiferana, UniProt O77255, R378M)
Procedure, shortened: (§1)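 Mutant CfEcR-DEF receptor and GAL4-driven luciferase reporter constructs transfected into mouse NIH3T3 cells with DMSO or ligand added; maintained 48 h at 37° C in 5% FBS, harvested 40 h after ligand addition. Dual-luciferase read-out; fold induction = RLU with ligand / RLU with DMSO.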

[2] = target: CfEcR-DEF mutant A110W (Choristoneura fumiferana, UniProt O77255, A393W)
Sequence of CfEcR-DEF mutant A110W (P28702 299-449, stated change not applied): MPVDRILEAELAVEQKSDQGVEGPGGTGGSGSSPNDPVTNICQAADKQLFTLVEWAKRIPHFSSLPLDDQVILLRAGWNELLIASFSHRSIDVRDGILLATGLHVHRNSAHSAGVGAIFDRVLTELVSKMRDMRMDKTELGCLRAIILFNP
Sequence of CfEcR-DEF mutant A110W (O77255 entry or part of it A393W): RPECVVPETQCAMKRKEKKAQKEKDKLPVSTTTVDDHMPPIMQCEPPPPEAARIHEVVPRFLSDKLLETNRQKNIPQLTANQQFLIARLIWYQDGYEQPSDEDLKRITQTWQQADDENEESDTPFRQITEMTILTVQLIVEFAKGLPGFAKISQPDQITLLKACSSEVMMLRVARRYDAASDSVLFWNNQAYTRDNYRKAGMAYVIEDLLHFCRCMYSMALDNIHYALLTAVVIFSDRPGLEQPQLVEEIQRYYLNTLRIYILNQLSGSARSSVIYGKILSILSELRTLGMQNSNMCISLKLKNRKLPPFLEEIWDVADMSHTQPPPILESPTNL
Procedure, shortened: as §1

[3] = target: CfEcR-DEF mutant A110E (Choristoneura fumiferana, UniProt O77255, A393E)
Sequence of CfEcR-DEF mutant A110E (P28702 299-449, stated change not applied): as the sequence (P28702 299-449, stated change not applied) above
Sequence of CfEcR-DEF mutant A110E (O77255 entry or part of it A393E): as the sequence (O77255 entry or part of it A393W) above, with W187E counted along it
Procedure, shortened: as §1

[4] = target: CfEcR-DEF mutant M125P (Choristoneura fumiferana, UniProt O77255, M408P)
Procedure, shortened: as §1

[5] = target: CfEcR-DEF mutant W238P (Choristoneura fumiferana, UniProt O77255, W521P)
Procedure, shortened: as §1

[6] = target: CfEcR-DEF mutant M92E (Choristoneura fumiferana, UniProt O77255, M375E)
Procedure, shortened: as §1

[7] = target: CfEcR-DEF mutant M54T (Choristoneura fumiferana, UniProt O77255, M337T)
Sequence of CfEcR-DEF mutant M54T (O77255 entry or part of it M337T): as the sequence (O77255 entry or part of it A393W) above, with M131T, W187A counted along it
Sequence of CfEcR-DEF mutant M54T (P28702 299-449, further chain): as the sequence (P28702 299-449, stated change not applied) above
Procedure, shortened: as §1

[8] = target: CfEcR-DEF mutant R95H (Choristoneura fumiferana, UniProt O77255, R378H)
Procedure, shortened: as §1

[9] = target: CfEcR-DEF mutant M125E (Choristoneura fumiferana, UniProt O77255, M408E)
Sequence of CfEcR-DEF mutant M125E (O77255 entry or part of it M408E): as the sequence (O77255 entry or part of it A393W) above, with W187A, M202E counted along it
Sequence of CfEcR-DEF mutant M125E (P28702 299-449, further chain): as the sequence (P28702 299-449, stated change not applied) above
Procedure, shortened: as §1

[10] = target: CfEcR-DEF mutant N119F/V96T (Choristoneura fumiferana, UniProt O77255, N402F/V379T)
Procedure, shortened: as §1

[11] = target: CfEcR-DEF mutant R95W (Choristoneura fumiferana, UniProt O77255, R378W)
Sequence of CfEcR-DEF mutant R95W (O77255 entry or part of it R378W): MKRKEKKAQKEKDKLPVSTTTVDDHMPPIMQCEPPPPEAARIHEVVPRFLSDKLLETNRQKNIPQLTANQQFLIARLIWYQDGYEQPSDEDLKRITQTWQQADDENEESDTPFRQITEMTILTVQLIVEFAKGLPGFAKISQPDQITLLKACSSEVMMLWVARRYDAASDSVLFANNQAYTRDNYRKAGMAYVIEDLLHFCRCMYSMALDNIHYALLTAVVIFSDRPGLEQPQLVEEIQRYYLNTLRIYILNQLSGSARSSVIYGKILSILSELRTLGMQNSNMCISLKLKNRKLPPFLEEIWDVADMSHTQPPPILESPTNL
Sequence of CfEcR-DEF mutant R95W (P28702 299-449, further chain): as the sequence (P28702 299-449, stated change not applied) above
Procedure, shortened: as §1

[12] = target: CfEcR-DEF mutant L132V (Choristoneura fumiferana, UniProt O77255, L415V)
Procedure, shortened: as §1

[13] = target: CfEcR-DEF mutant M125C (Choristoneura fumiferana, UniProt O77255, M408C)
Sequence of CfEcR-DEF mutant M125C (O77255 entry or part of it M408C): as the sequence (O77255 entry or part of it A393W) above, with W187A, M202C counted along it
Sequence of CfEcR-DEF mutant M125C (P28702 299-449, further chain): as the sequence (P28702 299-449, stated change not applied) above
Procedure, shortened: as §1

[14] = target: CfEcR-DEF mutant V96W (Choristoneura fumiferana, UniProt O77255, V379W)
Procedure, shortened: as §1

[15] = target: CfEcR-DEF mutant W238Y (Choristoneura fumiferana, UniProt O77255, W521Y)
Procedure, shortened: as §1

[16] = target: CfEcR-DEF mutant M125L (Choristoneura fumiferana, UniProt O77255, M408L)
Procedure, shortened: as §1

[17] = target: CfEcR-DEF mutant V128F/A110P (Choristoneura fumiferana, UniProt O77255, A393P/V411F)
Procedure, shortened: as §1

[18] = target: CfEcR-DEF mutant F109W (Choristoneura fumiferana, UniProt O77255, F392W)
Sequence of CfEcR-DEF mutant F109W (O77255 entry or part of it F392W): as the sequence (O77255 entry or part of it A393W) above, with F186W, W187A counted along it
Sequence of CfEcR-DEF mutant F109W (P28702 299-449, further chain): as the sequence (P28702 299-449, stated change not applied) above
Procedure, shortened: as §1

[19] = target: CfEcR-DEF mutant I51L (Choristoneura fumiferana, UniProt O77255, I334L)
Sequence of CfEcR-DEF mutant I51L (O77255 entry or part of it I334L): as the sequence (O77255 entry or part of it A393W) above, with I128L, W187A counted along it
Sequence of CfEcR-DEF mutant I51L (P28702 299-449, further chain): as the sequence (P28702 299-449, stated change not applied) above
Procedure, shortened: as §1

[20] = target: CfEcR-DEF mutant F109L (Choristoneura fumiferana, UniProt O77255, F392L)
Procedure, shortened: as §1

[21] = target: CfEcR-DEF mutant Y120W (Choristoneura fumiferana, UniProt O77255, Y403W)
Sequence of CfEcR-DEF mutant Y120W (O77255 entry or part of it Y403W): as the sequence (O77255 entry or part of it R378W) above, with W160R, Y185W counted along it
Sequence of CfEcR-DEF mutant Y120W (P28702 299-449, further chain): as the sequence (P28702 299-449, stated change not applied) above
Procedure, shortened: as §1

[22] = NIH3T3, 40 h, read-out: Rel Max FI
[23] = NIH3T3, mouse, 40 h, read-out: GS-E ligand max FI (relative to DMSO)

CCc1c(OC)cccc1C(=O)NN(C(=O)c1cc(C)cc(C)c1)C(C)(C)C [RG-102240, N-(2-ethyl-3-methoxybenzoyl)-N′-(3,5-dimethylbenzoyl)-N′-tert-butylhydrazine]
EC50 [1]: 2760 nM
Emax [1, 22]: 100%
maximal fold induction [1, 23]: 1690
Concentration (mM) at max FI ([1]; mutant R95M, GS-E ligand): 33.30 mM
EC50 [2]: 1370 nM
Emax [2, 22]: 100%
maximal fold induction [2, 23]: 5210
Concentration (mM) at max FI ([2]; mutant A110W, GS-E ligand): 10.00 mM
EC50 [3]: 590 nM
Emax [3, 22]: 100%
maximal fold induction [3, 23]: 4930
Concentration (mM) at max FI ([3]; mutant A110E, GS-E ligand): 10.00 mM
EC50 [4]: > 33 µM
Emax [4, 22]: 100%
maximal fold induction [4, 23]: 1
Concentration (mM) at max FI ([4]; mutant M125P, GS-E ligand): 0.0333 mM
EC50 [5]: ~400 nM
Emax [5, 22]: 100%
maximal fold induction [5, 23]: 4810
Concentration (mM) at max FI ([5]; mutant W238P, GS-E ligand): 10 mM
EC50 [6]: ~8 µM
Emax [6, 22]: 100%
maximal fold induction [6, 23]: 141
Concentration (mM) at max FI ([6]; mutant M92E, GS-E ligand): 0.0333 mM
EC50 [7]: 80 nM
Emax [7, 22]: 100%
maximal fold induction [7, 23]: 4460
Concentration (mM) at max FI ([7]; mutant M54T, GS-E ligand): 10.00 mM
EC50 [8]: 1580 nM
Emax [8, 22]: 100%
maximal fold induction [8, 23]: 3410
Concentration (mM) at max FI ([8]; mutant R95H, GS-E ligand): 33.30 mM
EC50 [9]: ~2000 nM
Emax [9, 22]: 100%
maximal fold induction [9, 23]: 1200
Concentration at max FI ([9]; mutant M125E, GS-E ligand): 33.3 mM
EC50 [10]: ~8 µM
Emax [10, 22]: 100%
maximal fold induction [10, 23]: 1740
Concentration (mM) at max FI ([10]; mutant N119F/V96T, GS-E ligand): 33.3 mM
EC50 [11]: ~7 µM
Emax [11, 22]: 100%
maximal fold induction [11, 23]: 1820
Concentration (mM) at max FI ([11]; mutant R95W, GS-E ligand): 33.30 mM
EC50 [12]: 2320 nM
Emax [12, 22]: 100%
maximal fold induction [12, 23]: 2130
Concentration (mM) at max FI ([12]; mutant L132V, GS-E ligand): 0.01 mM
EC50 ([13]; EC50, mutant M125C): ~8 µM and > 33 µM
Emax [13, 22]: 100%
maximal fold induction [13, 23]: 9
Concentration (mM) at max FI ([13]; mutant M125C, GS-E ligand): 33.3 mM
EC50 [14]: ~1000 nM
Emax [14, 22]: 100%
maximal fold induction [14, 23]: 615
Concentration (mM) at max FI ([14]; mutant V96W, GS-E ligand): 33.3 mM
EC50 [15]: ~13 µM
Emax [15, 22]: 100%
maximal fold induction [15, 23]: 11
Concentration (mM) at max FI ([15]; mutant W238Y, GS-E ligand): 0.0333 mM
EC50 [16]: ~10 µM
Emax [16, 22]: 100%
maximal fold induction [16, 23]: 2250
Concentration (mM) at max FI ([16]; mutant M125L, GS-E ligand): 0.0333 mM
EC50 [17]: ~8 µM
Emax [17, 22]: 100%
maximal fold induction [17, 23]: 2960
Concentration (mM) at max FI ([17]; mutant V128F/A110P, GS-E ligand): 33.30 mM
EC50 [18]: 610 nM
Emax [18, 22]: 100%
maximal fold induction [18, 23]: 3060
Concentration (mM) at max FI ([18]; mutant F109W, GS-E ligand): 10.00 mM
EC50 [19]: 3.2 µM
Emax [19, 22]: 100%
maximal fold induction [19, 23]: 2480
Concentration (mM) at max FI ([19]; mutant I51L, GS-E ligand): 33.30 mM
EC50 [20]: ~2000 nM
Emax [20, 22]: 100%
maximal fold induction [20, 23]: 20
Concentration (mM) at max FI ([20]; mutant F109L, GS-E ligand): 33.30 mM
EC50 [21]: 4.21 µM
Emax [21, 22]: 100%
maximal fold induction [21, 23]: 1890
